Legend:
[1] = target: T1, NR1/NR2C (Homo sapiens, UniProt Q05586+Q14957); test: Two electrode voltage clamp, Xenopus laevis oocytes expressing NR1/NR2C; assay type: cell-based; conditions: for IC50: fitted to composite concentration-effect data, read-out: 2C IC50; for Emax: maximal effect of fit, read-out: 2C Max
T1 construct: expressed in transfected cells; host or cells: Xenopus laevis oocytes
From the text: Values are mean+SEM (n=14-20). […] C is the closed level; broken line is the open level.
The Hill slope at both receptors for all analogues was greater than 1, consistent with a cooperative effect of binding at two sites.
(§1) In the table above, potency is expressed as fitted EC50 value to average composite concentration-effect data constructed from current responses recorded under two electrode voltage clamp from Xenopus laevis oocytes expressing either NR1/NR2A, B, C, or D, GluR1, or GluR6. No effect means less than 20% change in response amplitude at 30 μM of drug.

[2] = target: T2, NR1/NR2B (Homo sapiens, UniProt Q05586+Q13224); test: Two electrode voltage clamp, Xenopus laevis oocytes expressing NR1/NR2B; assay type: cell-based
T2 construct: expressed in transfected cells; host or cells: Xenopus laevis oocytes
T2 sequence (Q13224 27-1484, species assumed, other chains not shown): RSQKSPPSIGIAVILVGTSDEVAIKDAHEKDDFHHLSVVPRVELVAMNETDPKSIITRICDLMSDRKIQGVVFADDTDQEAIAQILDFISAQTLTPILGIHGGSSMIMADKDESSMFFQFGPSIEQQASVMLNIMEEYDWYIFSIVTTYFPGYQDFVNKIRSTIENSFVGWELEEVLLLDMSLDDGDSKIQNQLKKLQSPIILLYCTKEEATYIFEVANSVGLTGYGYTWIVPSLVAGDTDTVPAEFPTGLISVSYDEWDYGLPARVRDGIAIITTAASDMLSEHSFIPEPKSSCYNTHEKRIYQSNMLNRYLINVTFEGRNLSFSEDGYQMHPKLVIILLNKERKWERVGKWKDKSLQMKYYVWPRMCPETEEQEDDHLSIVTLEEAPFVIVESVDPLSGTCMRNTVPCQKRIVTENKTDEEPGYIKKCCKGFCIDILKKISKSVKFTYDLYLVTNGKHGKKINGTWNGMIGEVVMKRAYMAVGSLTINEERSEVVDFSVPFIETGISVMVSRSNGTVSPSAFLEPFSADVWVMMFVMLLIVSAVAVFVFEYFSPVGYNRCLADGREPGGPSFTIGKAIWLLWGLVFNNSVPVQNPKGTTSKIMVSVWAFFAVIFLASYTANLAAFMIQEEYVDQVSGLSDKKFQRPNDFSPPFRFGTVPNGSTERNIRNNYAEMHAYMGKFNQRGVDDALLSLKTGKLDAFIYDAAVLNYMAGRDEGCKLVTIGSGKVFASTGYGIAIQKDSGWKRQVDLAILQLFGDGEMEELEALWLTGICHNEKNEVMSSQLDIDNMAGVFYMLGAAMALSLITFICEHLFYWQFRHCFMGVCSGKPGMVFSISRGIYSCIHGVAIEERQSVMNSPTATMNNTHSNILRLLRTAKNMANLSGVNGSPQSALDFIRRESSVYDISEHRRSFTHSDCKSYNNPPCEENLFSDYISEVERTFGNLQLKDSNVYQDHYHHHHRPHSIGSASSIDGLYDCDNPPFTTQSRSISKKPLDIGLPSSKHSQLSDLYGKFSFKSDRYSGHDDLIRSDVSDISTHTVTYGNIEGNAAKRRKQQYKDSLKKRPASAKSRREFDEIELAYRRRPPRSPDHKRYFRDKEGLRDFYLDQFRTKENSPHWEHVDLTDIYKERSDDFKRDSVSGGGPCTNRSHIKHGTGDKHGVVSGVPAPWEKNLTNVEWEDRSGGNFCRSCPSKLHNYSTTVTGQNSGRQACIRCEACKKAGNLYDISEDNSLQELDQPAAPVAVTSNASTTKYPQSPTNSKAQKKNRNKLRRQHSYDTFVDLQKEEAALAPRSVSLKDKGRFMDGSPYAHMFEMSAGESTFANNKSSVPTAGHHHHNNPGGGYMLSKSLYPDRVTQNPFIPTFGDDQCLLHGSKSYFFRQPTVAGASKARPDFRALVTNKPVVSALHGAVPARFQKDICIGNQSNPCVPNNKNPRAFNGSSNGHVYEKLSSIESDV
Method: as §1

[3] = target: NR1/NR2D (Homo sapiens, UniProt O15399+Q05586); test: Two electrode voltage clamp, Xenopus laevis oocytes expressing NR1/NR2D; conditions: for activity at 100 µM: read-out: 2D percent effect at the maximum tested concentration, at 100 μM; for Emax: read-out: 2D Max
NR1/NR2D, sequence (O15399 28-1336, species assumed, other chains not shown): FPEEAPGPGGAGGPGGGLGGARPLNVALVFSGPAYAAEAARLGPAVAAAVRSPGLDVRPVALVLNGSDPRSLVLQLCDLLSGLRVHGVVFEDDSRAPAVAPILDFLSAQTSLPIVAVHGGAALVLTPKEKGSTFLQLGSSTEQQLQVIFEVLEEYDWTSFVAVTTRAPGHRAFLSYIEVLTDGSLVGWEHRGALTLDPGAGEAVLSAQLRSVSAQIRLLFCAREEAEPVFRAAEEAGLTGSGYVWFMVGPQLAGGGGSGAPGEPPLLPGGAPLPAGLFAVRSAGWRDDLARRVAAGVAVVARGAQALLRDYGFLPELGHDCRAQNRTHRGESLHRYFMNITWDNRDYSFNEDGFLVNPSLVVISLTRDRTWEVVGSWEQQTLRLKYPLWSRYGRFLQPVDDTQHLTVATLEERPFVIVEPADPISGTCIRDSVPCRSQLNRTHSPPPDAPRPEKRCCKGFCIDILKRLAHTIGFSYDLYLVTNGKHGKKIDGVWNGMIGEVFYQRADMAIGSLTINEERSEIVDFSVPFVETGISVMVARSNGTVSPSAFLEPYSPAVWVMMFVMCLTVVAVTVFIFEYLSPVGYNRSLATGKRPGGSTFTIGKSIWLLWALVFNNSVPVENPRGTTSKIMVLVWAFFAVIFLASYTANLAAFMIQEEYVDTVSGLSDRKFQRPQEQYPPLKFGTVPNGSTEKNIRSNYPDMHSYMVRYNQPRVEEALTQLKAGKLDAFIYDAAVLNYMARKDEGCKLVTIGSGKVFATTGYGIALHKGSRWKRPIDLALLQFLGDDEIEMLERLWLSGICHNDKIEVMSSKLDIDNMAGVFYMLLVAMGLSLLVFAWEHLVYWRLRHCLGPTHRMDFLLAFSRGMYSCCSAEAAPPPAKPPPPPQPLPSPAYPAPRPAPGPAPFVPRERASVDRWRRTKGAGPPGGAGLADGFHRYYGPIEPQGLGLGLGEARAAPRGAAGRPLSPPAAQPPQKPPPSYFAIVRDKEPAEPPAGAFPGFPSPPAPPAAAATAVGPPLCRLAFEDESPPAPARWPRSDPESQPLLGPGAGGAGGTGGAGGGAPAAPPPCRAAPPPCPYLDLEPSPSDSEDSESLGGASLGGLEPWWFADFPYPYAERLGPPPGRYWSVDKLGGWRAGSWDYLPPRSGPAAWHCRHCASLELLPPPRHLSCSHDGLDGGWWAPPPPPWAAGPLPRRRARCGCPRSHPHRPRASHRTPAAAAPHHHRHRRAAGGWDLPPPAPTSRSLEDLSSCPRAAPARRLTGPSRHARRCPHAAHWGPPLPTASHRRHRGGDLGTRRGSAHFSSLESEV

[4] = target: T3, NR1/NR2A (Homo sapiens, UniProt Q12879); test: Two electrode voltage clamp, Xenopus laevis oocytes expressing NR1/NR2A; assay type: cell-based; conditions: read-out: 2A percent effect at the maximum tested concentration
T3 construct: expressed in transfected cells; host or cells: Xenopus laevis oocytes
T3 sequence (Q12879 23-1464, species assumed, other chains not shown): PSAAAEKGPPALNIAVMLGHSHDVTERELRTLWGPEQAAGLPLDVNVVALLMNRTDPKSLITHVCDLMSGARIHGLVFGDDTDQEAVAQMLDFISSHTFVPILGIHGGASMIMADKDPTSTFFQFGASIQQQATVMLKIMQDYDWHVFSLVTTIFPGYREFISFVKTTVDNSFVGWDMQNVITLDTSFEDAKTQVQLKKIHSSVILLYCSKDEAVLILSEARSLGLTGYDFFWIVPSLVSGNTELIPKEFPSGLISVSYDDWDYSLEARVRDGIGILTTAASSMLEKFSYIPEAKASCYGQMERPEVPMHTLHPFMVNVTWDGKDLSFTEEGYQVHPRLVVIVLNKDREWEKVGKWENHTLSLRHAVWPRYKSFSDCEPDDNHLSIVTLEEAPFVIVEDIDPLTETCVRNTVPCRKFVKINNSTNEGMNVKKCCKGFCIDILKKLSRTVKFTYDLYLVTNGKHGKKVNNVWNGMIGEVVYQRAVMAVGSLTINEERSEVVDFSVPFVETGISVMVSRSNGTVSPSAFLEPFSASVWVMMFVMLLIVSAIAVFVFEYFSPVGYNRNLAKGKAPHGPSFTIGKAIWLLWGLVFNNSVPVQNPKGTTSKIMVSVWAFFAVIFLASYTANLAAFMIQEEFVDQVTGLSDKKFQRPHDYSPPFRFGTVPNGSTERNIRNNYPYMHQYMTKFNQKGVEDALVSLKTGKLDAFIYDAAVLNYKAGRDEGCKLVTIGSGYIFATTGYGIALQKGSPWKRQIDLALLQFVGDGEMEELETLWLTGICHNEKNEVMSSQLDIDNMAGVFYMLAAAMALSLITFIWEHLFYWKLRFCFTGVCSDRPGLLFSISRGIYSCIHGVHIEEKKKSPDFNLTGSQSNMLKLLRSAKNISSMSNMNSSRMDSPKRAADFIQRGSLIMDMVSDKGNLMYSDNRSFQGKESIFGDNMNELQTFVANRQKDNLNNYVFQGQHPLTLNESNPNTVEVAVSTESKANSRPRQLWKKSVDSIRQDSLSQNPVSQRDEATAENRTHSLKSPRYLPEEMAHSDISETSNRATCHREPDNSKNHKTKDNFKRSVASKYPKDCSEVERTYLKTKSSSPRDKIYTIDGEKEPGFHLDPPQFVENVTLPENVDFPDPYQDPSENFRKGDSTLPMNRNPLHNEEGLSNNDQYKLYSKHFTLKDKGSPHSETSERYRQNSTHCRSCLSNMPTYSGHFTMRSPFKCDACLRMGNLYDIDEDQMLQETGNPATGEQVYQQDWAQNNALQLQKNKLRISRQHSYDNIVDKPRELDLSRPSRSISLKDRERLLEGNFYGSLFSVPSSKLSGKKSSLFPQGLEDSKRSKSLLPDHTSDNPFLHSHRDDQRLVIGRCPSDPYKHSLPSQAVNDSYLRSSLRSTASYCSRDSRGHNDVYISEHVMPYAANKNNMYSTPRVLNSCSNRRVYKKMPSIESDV
Method: as §1

[5] = read-out: 2C percent effect at the maximum tested concentration
[6] = read-out: 2B percent effect at the maximum tested concentration

## COc1ccc(OCC2c3cc(OC)c(OC)cc3CCN2C(=O)CN2CCOCC2)cc1 (stereo not drawn) [1180-24]
[1]; [5]
  activity at 100 µM: 79%
[2]; [6]
  activity at 100 µM: 96%
[3]
  activity at 100 µM: 83%
[4]
  activity at 100 µM: 100%

## COc1ccc(OCC2c3cc(OC)c(OC)cc3CCN2C(=O)N2CCOCC2)cc1 (stereo not drawn) [1180-23]
[1]; [5]
  activity at 100 µM: 87%
[2]; [6]
  activity at 100 µM: 61%
[3]
  activity at 100 µM: 78%
[4]
  activity at 100 µM: 140%

## COc1ccc(OC[C@@H]2c3cc(OC)c(OC)cc3CCN2C(=O)c2cccc(Cl)c2)cc1 [1180-15]
[1]
  IC50: 2.4 µM
  Emax: 330%
[3]
  IC50: 4 µM
  Emax: 364%
[4]
  activity at 30 µM: 128%

## COc1ccc(OCC2c3cc(OC)c(OC)cc3CCN2C(=O)c2ccccn2)cc1 (stereo not drawn) [compound 1484]
[1]; [5]
  activity at 100 µM: 76%
[2]; [6]
  activity at 100 µM: 80%
[3]
  activity at 100 µM: 84%
[4]
  activity at 100 µM: 100%

## COc1ccc(OCC2c3cc(OC)c(OC)cc3CCN2C(=O)c2cccc(OC)c2)cc1 (stereo not drawn) [compound 1392]
[1]
  IC50: 6 µM
  Emax: 181%
[2]; [6]
  activity at 100 µM: 59%
[3]
  IC50: 12 µM
  Emax: 179%
[4]
  activity at 100 µM: 104%

## COc1ccc(OCC2c3cc(OC)c(OC)cc3CCN2C(=O)c2ccc(Br)cc2)cc1 (stereo not drawn) [compound 1393]
[1]; [5]
  activity at 100 µM: 96%
[2]; [6]
  activity at 100 µM: 80%
[3]
  activity at 100 µM: 94%
[4]
  activity at 100 µM: 120%

## CC(C)(C)c1ccc(C(=O)Nc2ccccc2C(=O)O)cc1 [compound 1479]
[1]; [5]
  activity at 100 µM: 102%
[2]; [6]
  activity at 100 µM: 97%
[3]
  activity at 100 µM: 113%
[4]
  activity at 100 µM: 94%

## COc1ccc(OCC2c3cc(OC)c(OC)cc3CCN2C(=O)c2ccco2)cc1 (stereo not drawn) [1180-4]
[1]; [5]
  activity at 100 µM: 100%
[2]; [6]
  activity at 100 µM: 69%
[3]
  activity at 100 µM: 89%
[4]
  activity at 100 µM: 105%

## CC(C)(C)c1ccc(NC(=O)C2CC=CCC2C(=O)O)cc1 (stereo not drawn) [compound 1480]
[1]; [5]
  activity at 100 µM: 86%
[2]; [6]
  activity at 100 µM: 83%
[3]
  activity at 100 µM: 85%
[4]
  activity at 100 µM: 92%

## Cc1ccc(CSc2nccn2C(=O)c2ccc(C(C)(C)C)cc2)cc1 [compound 1403]
[1]; [5]
  activity at 100 µM: 104%
[2]; [6]
  activity at 100 µM: 94%
[3]
  activity at 100 µM: 86%
[4]
  activity at 100 µM: 88%

## COc1ccc(OCC2c3cc(OC)c(OC)cc3CCN2C(=S)Nc2ccccc2)cc1 (stereo not drawn) [compound 1412]
[1]; [5]
  activity at 100 µM: 93%
[3]
  activity at 100 µM: 79%

## Cc1cc(C(=O)O)c(NC(=O)c2ccccc2)s1 [compound 1396]
[1]; [5]
  activity at 100 µM: 95%
[2]; [6]
  activity at 100 µM: 97%
[3]
  activity at 100 µM: 81%
[4]
  activity at 100 µM: 96%

## COc1ccc(NC(O)C2CN(C(C)C)C(=O)c3cc(OC)c(OC)cc32)c(OC)c1 (stereo not drawn) [compound 1440]
[1]; [5]
  activity at 100 µM: 71%
[2]; [6]
  activity at 100 µM: 90%
[3]
  activity at 100 µM: 82%
[4]
  activity at 100 µM: 123%

## COc1ccc(OCC2c3ccc(OC)cc3CCN2C(=O)c2cccc(Cl)c2)cc1 (stereo not drawn) [1180-26]
[1]
  IC50: 0.8 µM
  Emax: 196%
[2]; [6]
  activity at 100 µM: 75%
[3]
  IC50: 1 µM
  Emax: 185%
[4]
  activity at 100 µM: 93%

## COc1ccc(OCC2c3cc(OC)c(OC)cc3CCN2S(=O)(=O)c2cccc(Cl)c2)cc1 (stereo not drawn) [compound 1511]
[1]; at 10 μM, read-out: 2C percent effect at the maximum tested concentration
  activity at 10 µM: 99%
[3]; read-out: 2D percent effect at the maximum tested concentration, at 10 μM
  activity at 10 µM: 96%

## COc1ccc(OCC2c3cc(OC)c(OC)cc3CCN2C(=O)c2ccc(OC)cc2)cc1 (stereo not drawn) [compound 1364]
[1]; [5]
  activity at 100 µM: 98%
[2]; [6]
  activity at 100 µM: 75%
[3]
  activity at 100 µM: 93%

## COc1ccc(OCC2c3cc(OC)c(OC)cc3CCN2C(=O)c2cccc(C(F)(F)F)c2)cc1 (stereo not drawn) [compound 1426]
[1]
  IC50: 2 µM
  Emax: 171%
[2]; [6]
  activity at 100 µM: 86%
[3]
  IC50: 2 µM
  Emax: 204%
[4]
  activity at 100 µM: 88%

## COc1ccc(OCC2c3cc(OC)c(OC)cc3CCN2C(=O)c2cccc(Cl)c2Cl)cc1 (stereo not drawn) [1180-12]
[1]
  IC50: 2 µM
  Emax: 133%
[2]; at 30 μM, read-out: 2B percent effect at the maximum tested concentration
  activity at 30 µM: 90%
[3]; read-out: 2D percent effect at the maximum tested concentration, at 30 μM
  activity at 30 µM: 109%
[4]
  activity at 30 µM: 97%

## NCC(=O)O [glycine, reference compound]
[3]
  EC50: 0.2 µM

## CCOC(=O)c1cc(C)sc1NC(=O)c1ccc(C(C)(C)C)cc1 [compound 1400]
[1]; [5]
  activity at 100 µM: 96%
[2]; [6]
  activity at 100 µM: 89%
[3]
  activity at 100 µM: 86%
[4]
  activity at 100 µM: 80%

## COc1ccc(NC(O)C2CN(C)C(=O)c3cc(OC)c(OC)cc32)c(OC)c1 (stereo not drawn) [compound 1438]
[1]; [5]
  activity at 100 µM: 77%
[2]; [6]
  activity at 100 µM: 85%
[3]
  activity at 100 µM: 87%
[4]
  activity at 100 µM: 114%

## COc1ccc(-c2csc(NC(=O)c3ccc(C(C)(C)C)cc3)c2C(=O)O)cc1 [compound 1424]
[1]
  IC50: 42 µM
  Emax: 434%
[2]; fitted to composite concentration-effect data, Max 0 = inhibition, read-out: 2B IC50
  IC50: 19 µM
[3]
  IC50: 43 µM
  Emax: 475%
[4]
  activity at 100 µM: 123%

Reference: patent US8822462B2, “Subunit selective NMDA receptor potentiators for the treatment of neurological conditions” (Emory University, priority 2009, dated 2014)
